In patent US5679701A (priority 1996, dated 1997):
Entries after “also recorded” stand apart in the source; their conditions may differ. Read-outs that look alike come from different tables or passages of the source.

Legend:
[1] = target: T1, ryanodine receptor (skeletal sarcoplasmic reticulum membrane vesicles) (Oryctolagus cuniculus, UniProt P11716); test: biochemical; type: binding
T1 construct: skeletal sarcoplasmic reticulum membrane vesicles; from tissue; host or cells: skeletal muscle sarcoplasmic reticulum membrane vesicles

[2] = tested on: SR Ca^++ release channel/ryanodine receptor (cardiac and skeletal muscle vesicles); type: biochemical
[3] = target: T2, Sarcoplasmic Reticular Ca^++ -Release Channel (ryanodine receptor) (Oryctolagus cuniculus, UniProt P11716); test: biochemical; type: binding
T2 construct: skeletal sarcoplasmic reticulum membrane vesicles; from tissue; host or cells: skeletal muscle sarcoplasmic reticulum membrane vesicles

[4] = target: SR Ca^2+ release channel (junctional SR vesicles from rabbit skeletal muscle) (Oryctolagus cuniculus, UniProt P11716); test: biochemical; type: biochemical
Protocol: Briefly, junctional SR vesicles from rabbit skeletal muscle were passively loaded with. ^45 Ca^2+ in the presence and absence of the esters. Ca^2+ -efflux was then initiated by diluting the vesicles 100-fold into a low Ca^2+ -concentration. ^45 Ca^2+ remaining in the vesicles was determined after a 3 sec. efflux period by termination and filtration of the vesicles followed by liquid scintillation counting.

[5] = Table I, displacement of 6.7 nM [3H]ryanodine, mean ± standard deviation of replicates, read-out: IC50
[6] = Table I, mean ± standard deviation of replicates, read-out: KD
[7] = second embodiment, read-out: IC50
[8] = first embodiment, read-out: IC50
[9] = Table II, more highly purified standards, read-out: IC50 (nM) ± S.D.

T2 sequence (P11716 whole entry): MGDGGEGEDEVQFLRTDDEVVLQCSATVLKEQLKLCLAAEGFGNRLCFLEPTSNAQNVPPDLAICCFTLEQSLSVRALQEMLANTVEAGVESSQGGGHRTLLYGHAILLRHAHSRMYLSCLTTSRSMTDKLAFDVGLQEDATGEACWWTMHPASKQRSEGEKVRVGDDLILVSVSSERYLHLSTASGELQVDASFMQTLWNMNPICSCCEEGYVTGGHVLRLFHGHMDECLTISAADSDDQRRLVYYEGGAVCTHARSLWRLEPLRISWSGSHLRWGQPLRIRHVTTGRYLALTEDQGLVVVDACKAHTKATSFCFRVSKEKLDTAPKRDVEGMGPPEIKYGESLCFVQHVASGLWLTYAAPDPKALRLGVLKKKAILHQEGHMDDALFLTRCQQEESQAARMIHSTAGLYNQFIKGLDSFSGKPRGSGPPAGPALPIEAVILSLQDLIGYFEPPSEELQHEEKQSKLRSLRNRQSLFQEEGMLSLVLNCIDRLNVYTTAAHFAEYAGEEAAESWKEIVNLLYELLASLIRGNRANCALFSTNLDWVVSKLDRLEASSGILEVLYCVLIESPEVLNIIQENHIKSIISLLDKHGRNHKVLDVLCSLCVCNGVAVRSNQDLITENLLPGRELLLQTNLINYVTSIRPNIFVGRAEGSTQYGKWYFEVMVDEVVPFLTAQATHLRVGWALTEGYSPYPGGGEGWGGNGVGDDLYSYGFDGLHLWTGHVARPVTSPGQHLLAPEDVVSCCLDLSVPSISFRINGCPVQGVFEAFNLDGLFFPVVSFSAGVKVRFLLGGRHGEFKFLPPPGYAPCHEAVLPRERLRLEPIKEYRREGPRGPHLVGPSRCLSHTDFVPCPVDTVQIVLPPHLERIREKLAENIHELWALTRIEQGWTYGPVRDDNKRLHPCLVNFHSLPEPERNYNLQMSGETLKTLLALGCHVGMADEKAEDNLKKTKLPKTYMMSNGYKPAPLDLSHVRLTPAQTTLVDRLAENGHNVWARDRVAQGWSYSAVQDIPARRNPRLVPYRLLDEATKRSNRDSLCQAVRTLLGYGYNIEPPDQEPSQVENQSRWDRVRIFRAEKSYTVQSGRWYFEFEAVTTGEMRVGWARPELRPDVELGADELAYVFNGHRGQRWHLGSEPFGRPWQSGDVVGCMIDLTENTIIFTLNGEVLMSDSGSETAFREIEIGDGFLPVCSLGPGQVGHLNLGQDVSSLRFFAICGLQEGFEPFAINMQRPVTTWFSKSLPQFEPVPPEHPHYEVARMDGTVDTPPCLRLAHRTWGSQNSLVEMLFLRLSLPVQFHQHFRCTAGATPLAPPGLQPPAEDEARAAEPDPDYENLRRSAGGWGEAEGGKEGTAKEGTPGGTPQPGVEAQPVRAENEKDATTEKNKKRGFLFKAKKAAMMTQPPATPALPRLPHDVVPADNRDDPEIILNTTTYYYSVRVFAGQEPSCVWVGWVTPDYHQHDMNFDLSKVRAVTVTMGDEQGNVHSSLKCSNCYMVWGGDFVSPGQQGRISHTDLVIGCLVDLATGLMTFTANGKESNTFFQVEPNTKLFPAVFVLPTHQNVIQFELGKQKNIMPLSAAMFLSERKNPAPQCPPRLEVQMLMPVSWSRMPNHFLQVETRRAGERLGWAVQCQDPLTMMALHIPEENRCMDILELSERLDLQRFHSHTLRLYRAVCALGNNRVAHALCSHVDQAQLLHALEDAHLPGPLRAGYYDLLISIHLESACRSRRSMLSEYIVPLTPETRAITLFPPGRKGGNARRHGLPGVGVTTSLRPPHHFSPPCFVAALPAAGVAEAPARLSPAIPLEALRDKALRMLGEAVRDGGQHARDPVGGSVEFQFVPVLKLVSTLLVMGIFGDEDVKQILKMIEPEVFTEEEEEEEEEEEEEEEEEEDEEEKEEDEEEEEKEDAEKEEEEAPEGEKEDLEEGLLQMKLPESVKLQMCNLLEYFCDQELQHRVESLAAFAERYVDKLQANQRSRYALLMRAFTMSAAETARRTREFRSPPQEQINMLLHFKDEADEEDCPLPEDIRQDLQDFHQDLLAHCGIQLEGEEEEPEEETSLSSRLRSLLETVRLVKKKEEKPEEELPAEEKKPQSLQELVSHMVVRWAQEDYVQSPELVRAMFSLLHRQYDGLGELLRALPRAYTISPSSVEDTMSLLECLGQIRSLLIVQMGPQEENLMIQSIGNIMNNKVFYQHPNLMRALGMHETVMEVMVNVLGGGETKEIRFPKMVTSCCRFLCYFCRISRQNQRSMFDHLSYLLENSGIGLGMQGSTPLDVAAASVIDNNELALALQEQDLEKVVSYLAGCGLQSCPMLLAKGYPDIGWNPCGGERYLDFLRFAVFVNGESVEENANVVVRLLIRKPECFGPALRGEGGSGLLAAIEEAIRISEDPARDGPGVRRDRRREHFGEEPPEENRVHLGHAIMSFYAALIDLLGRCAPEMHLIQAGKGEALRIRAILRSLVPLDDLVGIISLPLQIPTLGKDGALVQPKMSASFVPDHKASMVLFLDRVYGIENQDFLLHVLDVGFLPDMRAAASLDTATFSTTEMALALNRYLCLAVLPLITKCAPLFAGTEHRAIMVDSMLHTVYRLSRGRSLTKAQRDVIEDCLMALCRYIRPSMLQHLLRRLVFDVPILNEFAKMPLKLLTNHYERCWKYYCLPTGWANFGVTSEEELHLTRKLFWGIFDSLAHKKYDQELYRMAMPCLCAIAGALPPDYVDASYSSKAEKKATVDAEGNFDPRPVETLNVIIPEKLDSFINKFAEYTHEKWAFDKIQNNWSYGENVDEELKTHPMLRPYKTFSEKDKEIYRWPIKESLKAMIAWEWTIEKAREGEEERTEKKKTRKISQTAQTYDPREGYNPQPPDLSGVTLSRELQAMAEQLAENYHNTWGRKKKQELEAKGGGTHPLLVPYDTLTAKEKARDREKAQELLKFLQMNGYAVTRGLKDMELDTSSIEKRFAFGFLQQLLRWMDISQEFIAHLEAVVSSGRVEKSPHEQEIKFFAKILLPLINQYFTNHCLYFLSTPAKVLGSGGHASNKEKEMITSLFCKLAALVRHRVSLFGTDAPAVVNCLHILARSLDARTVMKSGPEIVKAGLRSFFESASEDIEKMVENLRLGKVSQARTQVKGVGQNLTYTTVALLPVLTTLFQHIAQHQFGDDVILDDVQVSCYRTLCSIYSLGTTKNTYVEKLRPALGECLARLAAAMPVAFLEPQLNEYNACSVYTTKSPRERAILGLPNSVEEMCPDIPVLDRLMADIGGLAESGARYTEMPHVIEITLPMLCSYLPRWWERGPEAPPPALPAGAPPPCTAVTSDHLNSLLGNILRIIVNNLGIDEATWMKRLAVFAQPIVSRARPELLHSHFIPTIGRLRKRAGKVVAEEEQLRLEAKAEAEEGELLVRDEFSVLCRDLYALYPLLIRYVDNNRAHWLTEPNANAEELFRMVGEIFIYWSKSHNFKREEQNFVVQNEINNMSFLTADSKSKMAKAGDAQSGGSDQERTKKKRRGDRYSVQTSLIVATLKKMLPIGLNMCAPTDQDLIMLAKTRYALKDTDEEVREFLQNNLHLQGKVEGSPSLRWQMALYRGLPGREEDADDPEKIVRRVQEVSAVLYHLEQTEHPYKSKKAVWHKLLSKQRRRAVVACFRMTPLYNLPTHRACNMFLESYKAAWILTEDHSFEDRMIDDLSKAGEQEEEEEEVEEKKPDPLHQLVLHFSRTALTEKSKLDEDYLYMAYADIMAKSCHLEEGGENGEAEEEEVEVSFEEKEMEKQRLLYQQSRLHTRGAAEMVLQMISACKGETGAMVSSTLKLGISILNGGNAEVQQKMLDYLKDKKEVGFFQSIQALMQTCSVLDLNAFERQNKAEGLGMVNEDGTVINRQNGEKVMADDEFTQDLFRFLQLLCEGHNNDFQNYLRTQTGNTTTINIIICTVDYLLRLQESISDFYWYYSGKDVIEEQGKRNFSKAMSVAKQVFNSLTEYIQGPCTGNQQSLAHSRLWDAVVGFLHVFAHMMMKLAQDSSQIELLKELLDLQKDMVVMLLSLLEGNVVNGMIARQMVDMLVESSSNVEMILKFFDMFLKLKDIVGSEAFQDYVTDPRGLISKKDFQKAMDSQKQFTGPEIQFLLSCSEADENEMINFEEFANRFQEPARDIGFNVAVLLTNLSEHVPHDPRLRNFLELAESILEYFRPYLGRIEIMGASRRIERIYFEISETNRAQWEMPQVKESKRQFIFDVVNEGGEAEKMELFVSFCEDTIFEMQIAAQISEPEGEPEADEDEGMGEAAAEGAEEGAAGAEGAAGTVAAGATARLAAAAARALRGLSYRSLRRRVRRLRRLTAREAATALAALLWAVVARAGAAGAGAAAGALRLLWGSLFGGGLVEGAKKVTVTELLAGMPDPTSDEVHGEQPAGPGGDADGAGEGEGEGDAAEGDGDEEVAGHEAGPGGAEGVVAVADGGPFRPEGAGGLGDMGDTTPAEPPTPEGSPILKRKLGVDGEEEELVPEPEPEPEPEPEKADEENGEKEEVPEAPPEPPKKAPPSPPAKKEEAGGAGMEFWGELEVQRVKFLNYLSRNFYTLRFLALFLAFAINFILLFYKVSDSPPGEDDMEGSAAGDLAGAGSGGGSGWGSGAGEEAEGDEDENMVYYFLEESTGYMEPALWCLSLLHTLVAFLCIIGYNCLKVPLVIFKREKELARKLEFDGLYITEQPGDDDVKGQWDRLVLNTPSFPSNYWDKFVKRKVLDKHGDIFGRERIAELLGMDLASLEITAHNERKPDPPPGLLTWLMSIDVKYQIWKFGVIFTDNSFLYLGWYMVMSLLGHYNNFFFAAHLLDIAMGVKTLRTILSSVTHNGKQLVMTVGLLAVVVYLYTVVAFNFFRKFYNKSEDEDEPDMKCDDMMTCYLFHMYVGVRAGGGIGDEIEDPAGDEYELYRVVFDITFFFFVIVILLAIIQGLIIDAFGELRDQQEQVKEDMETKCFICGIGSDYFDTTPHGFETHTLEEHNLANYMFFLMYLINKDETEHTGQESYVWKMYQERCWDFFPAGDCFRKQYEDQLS
Sequence of SR Ca^2+ release channel (junctional SR vesicles from rabbit skeletal muscle) (P11716 whole entry): as above
T1 sequence (P11716 whole entry): as above

C=C1CCC2(O)C3(C)CC4(O)OC2(C1O)C1(O)C3(O)C(OC(=O)c2ccc[nH]2)C(O)(C(C)C)C41C (stereo not drawn) [Dehydroryanodine, dehydroryanodine]
IC50 [1]: 16.1 ± 4.1 nM
Kd [1]: 5.4 ± 0.1 nM
closing of the SR Ca^++ release channel (in words) ([2]; I, NMDS: concentrations as high as 300 μM, ryanodine, dehydroryanodine: >μM): the channel is closed
opening of the SR Ca^++ release channel (in words) ([2]; ryanodine, dehydroryanodine: low concentrations (<μM)): opens the SR Ca^++ release channel/ryanodine receptor; also recorded: the Ca^++ release channel is opened

CC1CCC2(O)C3(C)CC4(O)OC2(C1OC(=O)CNC(=O)OCc1ccccc1)C1(O)C3(O)C(OC(=O)c2ccc[nH]2)C(O)(C(C)C)C41C (stereo not drawn) [I, O10eq-[(N'Carbobenzyloxy)-Glycyl]-Ryanodine]
IC50 [1, 5]: 22.3 ± 7.3 nM
Kd [1, 6]: 6.6 ± 2 nM
relative binding affinity compared with ryanodine (in words) ([3]; vs ryanodine): slightly enhanced affinity
closing of the SR Ca^++ release channel (in words) [2]: neither XVII(NMDS) nor CBZ-glycyl-ryanodine (I) exhibits significant ability to close the channel
opening of the SR Ca^++ release channel (in words) [2]: only slightly less active than ryanodine for opening the channel; also recorded: same selective activity of only opening this channel, albeit at higher dose levels
potency and selectivity comparison (in words) ([2]; I vs XVIII (NMDS)): more potent and more selective than XVIII(NMDS)

C=C1CCC2(O)C3(C)CC4(O)OC2(C1OC(=O)CCNC(=O)c1ccccc1)C1(O)C3(O)C(OC(=O)c2ccc[nH]2)C(O)(C(C)C)C41C (stereo not drawn) [II, O10eg -(N-Benzoyl-β-alanyl)-Dehydroryanodine]
IC50 [1, 5]: 25.1 ± 8.2 nM
Kd [1, 6]: 8.2 ± 3.2 nM

C=C1CCC2(O)C3(C)CC4(O)OC2(C1OC(=O)CCNC(=O)C12CC5CC(CC(C5)C1)C2)C1(O)C3(O)C(OC(=O)c2ccc[nH]2)C(O)(C(C)C)C41C (stereo not drawn) [III, O10eq-[N-(1-Adamantanecarbonyl)-β-Alanyl]-Dehydroryanodine]
IC50 [1, 5]: 72.8 ± 6.2 nM
Kd [1, 6]: 26.9 ± 3.6 nM

CC1CCC2(O)C3(C)CC4(O)OC2(C1OC(=O)CCNC(=O)OCc1ccccc1)C1(O)C3(O)C(OC(=O)c2ccc[nH]2)C(O)(C(C)C)C41C (stereo not drawn) [IV, O10eq. -Carbobenzyloxy-β-alanyl-ryanodine]
IC50 [1, 5]: 12.3 ± 1 nM
Kd [1, 6]: 4 ± 0.2 nM
IC50 ([1]; restated for adjustment, read-out: IC50 value (Table I value as restated in text)): 12.3 nM
IC50 ([3]; Table I value multiplied by 6.2/11.9=0.52, read-out: adjusted IC50 value): 6.4 nM
IC50 [3, 7]: 5.9 nM
relative binding affinity compared with ryanodine (in words) ([3]; vs ryanodine): slightly enhanced affinity
opening of the SR Ca^++ release channel (in words) [2]: same selective activity of only opening this channel, albeit at higher dose levels

CC1=C(C(C)C)C(OC(=O)c2ccc[nH]2)C2(O)C3(C)CC(=O)OC4(C(OC(=O)CCN)C(C)CCC34O)C12O (stereo not drawn) [V-I, O10eq -β-Alanyl-Anhydroryanodine]
IC50 [1, 5]: 37 nM
IC50 [1, 8]: 106 nM
Kd ([1]; first embodiment, read-out: KD): 37 nM
binding affinity as fraction of that of Ryanodine ([1]; vs ryanodine): 1/10

CC1CCC2(O)C3(C)CC4(O)OC2(C1OC(=O)CCNC(=O)c1cc(N=[N+]=[N-])ccc1[N+](=O)[O-])C1(O)C3(O)C(OC(=O)c2ccc[nH]2)C(O)(C(C)C)C41C (stereo not drawn) [VI, O10eq-[N-(5-Azido-2-nitrobenzoyl)-β-Alanyl] Ryanodine]
binding affinity for the ryanodine receptor (in words) [1]: of a similar magnitude as that of ryanodine
IC50 [1, 5]: 36.6 ± 2.8 nM
Kd [1, 6]: 12.5 ± 1 nM
Kd ([1]; VI prepared from V-II, read-out: KD (50)): 12.5 ± 1 nM
IC50 ([1]; VI prepared from V, read-out: IC50): 37.2 ± 9.7 nM
Kd ([1]; VI prepared from V, read-out: KD): 14 ± 3.6 nM
IC50 [1, 8]: 36.6 ± 2.8 nM
Kd ([1]; first embodiment, read-out: KD): 12.5 ± 1 nM

C=C1CCC2(O)C3(C)CC4(O)OC2(C1OC(=O)CCNC(=O)c1ccc(I)cc1)C1(O)C3(O)C(OC(=O)c2ccc[nH]2)C(O)(C(C)C)C41C (stereo not drawn) [XII, p-Iodobenzoyl-β-alanyl-dehydroryanodine]
binding affinity for the ryanodine receptor (in words) [1]: binds effectively to the ryanodine receptor
IC50 [1, 5]: 16 nM
Kd [1, 6]: 5.2 nM
IC50 [1, 8]: 16 nM
Kd ([1]; first embodiment, read-out: KD): 5.2 nM

C=C1CCC2(O)C3(C)CC4(O)OC2(C1OC(=O)CCNC(=O)c1ccc(OCCCC)cc1)C1(O)C3(O)C(OC(=O)c2ccc[nH]2)C(O)(C(C)C)C41C (stereo not drawn) [XIII, O10eq-[N-(p-n-Butoxybenzoyl)-β-Alanyl]-Dehydroryanodine]
IC50 [1, 5]: 28 ± 6.6 nM
Kd [1, 6]: 9.7 ± 2.5 nM
IC50 [1, 8]: 20.2 nM
Kd ([1]; first embodiment, read-out: KD): 6 nM

CC1CCC2(O)C3(C)CC4(O)OC2(C1OC(=O)CCNC(=O)CCCCC1SCC2NC(=O)NC21)C1(O)C3(O)C(OC(=O)c2ccc[nH]2)C(O)(C(C)C)C41C (stereo not drawn) [XIV, O10eq -N-Biotinlyl-β-Alanyl-Ryanodine]
IC50 [1, 5]: 65.1 ± 5.5 nM
Kd [1, 6]: 24.9 ± 1.4 nM
IC50 [1, 8]: 65.1 ± 3.5 nM
Kd ([1]; first embodiment, read-out: KD): 24.9 ± 1.4 nM

CC1=CC(C)=[N+]2C1=Cc1ccc(CCC(=O)NCCC(=O)OC3C(C)CCC4(O)C5(C)CC6(O)OC34C3(O)C5(O)C(OC(=O)c4ccc[nH]4)C(O)(C(C)C)C63C)n1[B-]2(F)F (stereo not drawn) [XV, O10eq -N-BODIPY(FL C3)-β-Alanyl-Ryanodine]
IC50 [1, 5]: 41.2 ± 2.7 nM
Kd [1, 6]: 15.8 ± 1 nM
IC50 [1, 8]: 41.2 ± 2.7 nM
Kd ([1]; first embodiment, read-out: KD): 15.8 ± 1 nM

C=C1CCC2(O)C3(C)CC4(O)OC2(C1OC(=O)CCC(=O)O)C1(O)C3(O)C(OC(=O)c2ccc[nH]2)C(O)(C(C)C)C41C (stereo not drawn) [XVII, Dehydroryanodine-O10eg -Hemi-Succinate]
IC50 ([1]; IC50 (nM)): > 1000 nM

C=C1CCC2(O)C3(C)CC4(O)OC2(C1OC(=O)CCC(=O)NC)C1(O)C3(O)C(OC(=O)c2ccc[nH]2)C(O)(C(C)C)C41C (stereo not drawn) [XVIII, N-Methyl-Dehydroryanodine-Succinamidate]
IC50 ([1]; IC50 (nM)): 49.4 ± 10.6 nM
Kd [1, 6]: 19.9 ± 5.8 nM
closing of the SR Ca^++ release channel (in words) [2]: neither XVII(NMDS) nor CBZ-glycyl-ryanodine (I) exhibits significant ability to close the channel
opening of the SR Ca^++ release channel (in words) [2]: only slightly less active than ryanodine for opening the channel

CC1CCC2(O)C3(C)CC4(O)OC2(C1OC(=O)CCNC(=NC(=O)OCc1ccccc1)NC(=O)OCc1ccccc1)C1(O)C3(O)C(OC(=O)c2ccc[nH]2)C(O)(C(C)C)C41C (stereo not drawn) [XX, O10eq -β-N,N'-bis-Cbz-guanidino-propionyl-ryanodine]
IC50 [3, 9]: 43.6 nM
lessened affinity compared with ryanodine ([3]; vs ryanodine): 7-20 fold

CC1CCC2(O)C3(C)CC4(O)OC2(C1OC(=O)CCNC(=N)N)C1(O)C3(O)C(OC(=O)c2ccc[nH]2)C(O)(C(C)C)C41C (stereo not drawn) [XXI, O10eq -β-Guanidinopropionyl-Ryanodine]
IC50 [3, 9]: 1.1 ± 0.1 nM
relative binding affinity compared with ryanodine (in words) ([3]; vs ryanodine): about six times greater than that of ryanodine
relative binding affinity compared with ryanodine (in words) ([3]; vs ryanodine, listed as O10eq -β-guanidinopropyl-ryanodine): high binding affinity
opening (activation) of the SR CRC (in words) [4]: appears to be purely an activator of the SR CRC
closing (deactivation) of the SR CRC (in words) ([4]; higher concentrations, up to 1 mM for V-II, XXI preliminary): entirely lack the ability of ryanodine to close the SR CRC
pharmacological profile (in words) ([4]; vs biphasic profile of ryanodine): altered--unidirectional--pharmacological profile, differing from the biphasic profile of ryanodine

CC1CCC2(O)C3(C)CC4(O)OC2(C1OC(=O)CN)C1(O)C3(O)C(OC(=O)c2ccc[nH]2)C(O)(C(C)C)C41C (stereo not drawn) [XXII, O10eq -glycyl-ryanodine]
IC50 [3, 9]: 1.8 ± 0.4 nM

CC1CCC2(O)C3(C)CC4(O)OC2(C1OC(=O)CNC(=NC(=O)OCc1ccccc1)NC(=O)OCc1ccccc1)C1(O)C3(O)C(OC(=O)c2ccc[nH]2)C(O)(C(C)C)C41C (stereo not drawn) [XXIII, O10eq -N,N'-bis-(Cbz)-guanidinoacetyl-ryanodine]
lessened affinity compared with ryanodine [3]: 7-20 fold
IC50 ([3]; IC50 (nM) ± S.D.): 136 nM

CC1CCC2(O)C3(OC4(O)C[C@]2(C)C2(O)[C@H](OC(=O)c5ccc[nH]5)C(O)(C(C)C)C4(C)C32O)[C@@H]1OC(=O)CN=C(N)N (stereo partly drawn) [XXIV, O10eq -Guanidinoacetyl-Ryanodine]
IC50 [3, 9]: 1.8 ± 0.2 nM
IC50 [3, 7]: 1.8 nM

C=C1CCC2(O)C3(C)CC4(O)OC2(C1OC(=O)CCNC(=O)OCc1ccccc1)C1(O)C3(O)C(OC(=O)c2ccc[nH]2)C(O)(C(C)C)C41C (stereo not drawn) [XXV, O10eq -CBZ-β-Alanyl-Dehydroryanodine]
IC50 [3, 9]: 4.43 nM

C=C1CCC2(O)C3(C)CC4(O)OC2(C1OC(=O)CCN)C1(O)C3(O)C(OC(=O)c2ccc[nH]2)C(O)(C(C)C)C41C (stereo not drawn) [XXVI, O10eq -β-Alanyl-Dehydroryanodine]
IC50 [3, 9]: 3.36 nM

CC1CCC2(O)C3(C)CC4(O)OC2(C1OC(=O)CCNC(=O)CCNC(=O)c1cc(I)c(N=[N+]=[N-])cc1O)C1(O)C3(O)C(OC(=O)c2ccc[nH]2)C(O)(C(C)C)C41C (stereo not drawn) [XXXI, O10eq N-(4-azido-5-^125 Iodosalicyloyl)-β-alanyl-β-alanyl ryanodine]
IC50 ([1]; non-radioactive compound, read-out: IC50): 25.1 ± 2.5 nM
deactivation of the CRC in calcium flux experiments (in words) ([4]; concentrations greater than 1 mM, non-radioactive compound): does not deactivate the CRC
